The supplement of paper PMC10307832

Tests used:
Assay in all cases: relative viability (nuclei count vs DMSO), 5 days (fraction); higher = more cells survive
[1] = compound: C1CC1C(=O)NC2=NNC3=C2C=CC(=C3)C4=CC(=CC=C4)C(=O)NC5CC5 [XMD13-2] + CC(=O)c1c(C)c2cnc(Nc3ccc(N4CCNCC4)cn3)nc2n(C2CCCC2)c1=O [Palbociclib] (partner 0.5 µM)
In short: (§1)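 Dosing by pin tool came one day after lung cancer cell lines were seeded in 1536-well plates, using either one drug or a fixed anchor-drug dose plus five library-drug doses (not always all listed) in √10 steps. After 5 days, nuclei were counted on 4× images. Relative viability is treated-well nuclei count divided by vehicle-well nuclei count, and values are medians of duplicate plates.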

[2] = compound: C1CC1C(=O)NC2=NNC3=C2C=CC(=C3)C4=CC(=CC=C4)C(=O)NC5CC5 [XMD13-2] + N=C(N)NC(=N)NCCc1ccccc1 [Phenformin] (partner 250 µM)
In short: as §1

[3] = compound: Cc1ccc(C(=O)Nc2cccc(C(F)(F)F)c2)cc1Nc1cncc(C(N)=O)c1 [ALW-II-49-7] + CC(=O)c1c(C)c2cnc(Nc3ccc(N4CCNCC4)cn3)nc2n(C2CCCC2)c1=O [Palbociclib] (partner 0.5 µM)
In short: as §1

[4] = compound: Cc1nc(Nc2ncc(C(=O)Nc3c(C)cccc3Cl)s2)cc(N2CCN(CCO)CC2)n1 [Dasatinib] + Nc1ncn([C@H]2C[C@H](O)[C@@H](CO)O2)c(=O)n1 [Decitabine] (partner 2 µM)
In short: as §1

Row | Cell Line | relative viability ([1]; first compound 0.05 µM) | relative viability ([1]; first compound 0.1581 µM) | relative viability ([1]; first compound 0.5 µM) | relative viability ([1]; first compound 1.581 µM) | relative viability ([1]; first compound 5 µM) | relative viability ([2]; first compound 0.05 µM) | relative viability ([2]; first compound 0.1581 µM) | relative viability ([2]; first compound 0.5 µM) | relative viability ([2]; first compound 1.581 µM) | relative viability ([2]; first compound 5 µM) | relative viability ([3]; first compound 0.08 µM) | relative viability ([3]; first compound 0.253 µM) | relative viability ([3]; first compound 0.8 µM) | relative viability ([3]; first compound 2.53 µM) | relative viability ([3]; first compound 8 µM) | relative viability ([4]; first compound 0.005 µM) | relative viability ([4]; first compound 0.01581 µM) | relative viability ([4]; first compound 0.05 µM) | relative viability ([4]; first compound 0.1581 µM) | relative viability ([4]; first compound 0.5 µM)
1 | NCI-H2347 | 0.471 | 0.424 | 0.465 | 0.382 | 0.471 | 0.615 | 0.507 | 0.404 | 0.26 | 0.51 | 0.528 | 0.452 | 0.43 | 0.432 | 0.478 | 0.562 | 0.538 | 0.459 | 0.322 | 0.265
2 | NCI-H2405 | 0.545 | 0.529 | 0.474 | – | 0.518 | 0.436 | 0.417 | 0.411 | 0.397 | 0.438 | 0.507 | 0.591 | 0.488 | 0.532 | 0.468 | 0.693 | 0.489 | 0.45 | 0.293 | 0.219
3 | NCI-H3122 | 0.191 | 0.202 | 0.142 | 0.177 | 0.181 | 0.612 | 0.37 | 0.4 | 0.374 | 0.353 | 0.223 | 0.212 | 0.191 | 0.397 | 0.227 | 0.503 | 0.476 | 0.536 | 0.428 | 0.33
4 | PC-3 [JPC-3] | 0.558 | 0.508 | 0.571 | – | 0.532 | 0.5 | 0.49 | 0.48 | 0.523 | 0.54 | 0.536 | 0.595 | 0.546 | 0.561 | 0.558 | 0.799 | 0.802 | 0.81 | 0.755 | 0.623
5 | PC-14 | 0.597 | 0.526 | 0.517 | 0.586 | 0.568 | 0.635 | 0.794 | 0.556 | 0.478 | 0.838 | 0.454 | 0.568 | 0.471 | 0.551 | 0.41 | 0.301 | 0.258 | 0.215 | 0.186 | 0.0693
6 | RERF-LC-KJ | 1.06 | 1.11 | 1.1 | 1.04 | 1.03 | 0.5 | 0.435 | 0.446 | 0.407 | 0.396 | 1.04 | 1.07 | 1.04 | 0.998 | 1.08 | 0.701 | 0.621 | 0.552 | 0.629 | 0.627
7 | SK-LU-1 | 0.42 | 0.393 | 0.38 | 0.378 | 0.319 | 0.609 | 0.528 | 0.594 | 0.592 | 0.525 | 0.332 | 0.35 | 0.337 | 0.26 | 0.323 | 0.609 | 0.449 | 0.437 | 0.282 | 0.24
8 | SK-MES-1 | 0.308 | 0.312 | 0.304 | 0.329 | 0.326 | 0.699 | 0.657 | 0.696 | 0.598 | 0.644 | 0.344 | 0.314 | 0.284 | 0.315 | 0.22 | 0.409 | 0.364 | 0.265 | 0.169 | 0.136
9 | SW 900 | 0.592 | 0.382 | 0.669 | 0.549 | 0.589 | 0.696 | 0.621 | 0.682 | 0.49 | 0.781 | 0.475 | 0.577 | – | 0.573 | 0.658 | 0.46 | 0.39 | 0.398 | 0.413 | 0.23
10 | SW 1573 | 0.442 | 0.366 | 0.717 | 0.371 | 0.287 | 0.443 | 0.385 | 0.384 | 0.26 | 0.24 | 0.347 | 0.489 | 0.373 | 0.347 | 0.319 | 0.431 | 0.428 | 0.381 | 0.288 | 0.405
